# Assay results as given in the OPERA property sets (Mansouri et al. 2018).
row,logP,Structure (SMILES)
1,4.48,CC(C)CNC(=O)Nc1ccc(Cl)c(Cl)c1
2,3.6,CC1(NC(=O)Nc2ccccc2)CCCCC1
3,3.83,CCCC(C)(C)C(=O)Nc1ccc(Cl)cc1
4,2.83,CN(C)C(=O)Nc1cccc(Cc2ccccc2)c1
5,3.61,O=C(Cc1ccccc1)Nc1cccc(Cl)c1
6,1.26,CNC(=O)Nc1cccc(OC)c1
7,2.55,CCCc1ccc(NC(=O)N(C)C)cc1

# More lines, now with the values behind:
row,Structure (SMILES),logP
1,CCCCCC(C)Nc1nc(Cl)nc(NCC)n1 (centres undefined),4.74
2,CCNc1nc(Cl)nc(NCC2CC2)n1,2.85
3,CCNc1nc(Cl)nc(NC2CCC2)n1,2.77
4,CCCC(C)C(=O)Nc1ccc(C)c(Cl)c1 (centres undefined),4.31
5,C=CC(C)C(=O)Nc1ccc(Cl)cc1Cl (centres undefined),3.49
6,C=CCNc1nc(Cl)nc(NCC=C)n1,2.75
7,CCNc1nc(Cl)nc(NC2CCCCC2)n1,3.63
